Measured values from patent US9546129B2, “DTPA prodrugs, compositions thereof, and methods of using the same” (priority 2012, dated 2017).
Marks after values point to notes of the source that are not given here.

System: ^241Am contaminated beagle dogs (inhalation)
Test: Decorporation efficacy in beagle dogs after ^241Am nitrate inhalation (Example 2)
Assay type: in vivo, beagle dog
Settings: for Average percent recovered activity, Feces / Average percent recovered activity, Urine: cumulative, Mean (SEM); for Average percent recovered activity, GIT / Average percent recovered activity, Kidney / Average percent recovered activity, Liver / Average percent recovered activity, Lung / Average percent recovered activity, Ovaries / Average percent recovered activity, Soft Tissue / Average percent recovered activity, Spleen / Average percent recovered activity, TBLN / Average percent recovered activity, Testes / Average percent recovered activity, Total Bone: day 14, Mean (SEM)
Method: The efficacy of C2E2 of Lot 050 obtained using Method 2 was evaluated in male and female beagle dogs administered a nitrate complex of americium-241 (^241Am) via inhalation (INH). C2E2 was administered 24 hours post ^241Am inhalation exposure. Animals were monitored and urine and feces were collected daily. Cages were rinsed daily. Animals were euthanized 14 days later and tissues collected. Tissues were processed and analyzed for ^241Am content. The in-life measurements and biokinetics of ^241Am with and without chelation treatment are described.
Sixteen (16) male and female beagle dogs underwent a 14-day quarantine period for acclimation. Once released from quarantine, animals were weighed and that weight was used to randomize the animals into the study. Dogs were 13.3±2.2 months of age at study initiation and weighed 8.9±1.2 kg. After randomization, the animals were acclimated to metabolism cages for approximately 24 hours prior to radionuclide inhalation administration of ^241Am(III)-nitrate at time 0 followed by oral gavage administration of vehicle (water) or 100, 300, or 500 mg/kg C2E2 at 24 hours post inhalation exposure. Animals were placed in metabolism cages for the duration of the in-life phase.
Animals were euthanized 14 days after administration of ^241Am. A full necropsy was conducted and liver, spleen, kidneys, lungs and trachea, muscle samples (right and left quadriceps), GI tract (stomach and esophagus, upper and lower intestine), gonads, two femurs, lumbar vertebrae (L1-L4), paws and tail, TBLN, and all soft tissue remains were collected. The brain and eyes were removed from the skull and combined with the soft tissue remains. The skeleton was defleshed and all bone samples collected for analysis. Pelt was not analyzed for ^241Am content.
Urine, feces, cage rinse, and all tissue samples were processed by heat and chemical treatments. The samples were analyzed by gamma pulse height analysis.
For the study, stock C2E2 (L/N: 020WJL050) was obtained as a white powder and stored at 2-8° C. The C2E2 was weighed out and dissolved in vehicle, DI water. Solutions were prepared at 20 mg/mL, 60 mg/mL, and 100 mg/mL on each day of dosing. The formulation was protected from light by wrapping the container in aluminum foil. Metal-free spatulas, glassware, and stir bars were used when weighing and preparing the formulation.
On the morning of exposure, animals were fasted and sedated with acepromazine (0.05 mg/kg) by intramuscular administration. Dogs were anesthetized with isoflurane (5%). A latex mask was placed over the muzzle to minimize external contamination of the dog. The latex-covered muzzle was placed into the exposure plenum where a mixture of oxygen and isoflurane were continuously flowing and being monitored. Oxygen in the box was maintained at 45-55% and isoflurane was delivered as needed (2-3% in oxygen) to ensure the dog remained anesthetized. Aerosols were generated from the ^241Am nitrate solution using a Hospitec nebulizer operated at 10 psi. The aerosol was transited through a tube furnace operating at 70-80° C. to dry the aerosol and minimize the amount of acid present.
The exhaust flow was 12.2 L/min. Aerosols were collected on Pallflex® FiberFilm™ filters at a flow rate of 0.49 L/min for filter samples and 1.95 L/min for cascade impactor samples. Filters were placed in 20-mL vials with 5 mL of 7N HNO3 and vortexed for 30 seconds. The filters were removed and placed singly into another 20-mL vial. A […] aliquot was removed from the original vial. The filter and the aliquot were individually analyzed for ^241Am and the amount collected on the filter was determined. The aerosol concentration was determined to be 1155±223 nCi/L. The particle size was determined to be 0.63 μm AMAD (activity median aerodynamic diameter) with a 1.72 geometric standard deviation (GSD). Animals were exposed for 8 minutes. […]

[1] = C2E2 100 mg/kg (low dose) vs untreated control, dogs, 100 mg/kg
[2] = C2E2 100 mg/kg oral 24 h after ^241Am inhalation, dogs
[3] = C2E2 300 mg/kg (mid dose) vs untreated control, dogs, 300 mg/kg
[4] = C2E2 300 mg/kg oral 24 h after ^241Am inhalation, dogs
[5] = C2E2 500 mg/kg (high dose) vs untreated control, dogs, 500 mg/kg
[6] = C2E2 500 mg/kg oral 24 h after ^241Am inhalation, dogs
[7] = treated groups vs controls, dose not specified

CCOC(=O)CN(CCN(CCN(CC(=O)O)CC(=O)OCC)CC(=O)O)CC(=O)O [C2E2, 6,9-bis(carboxymethyl)-3-(2-ethoxy-2-oxoethyl)-11-oxo-12-oxa-3,6,9-triazatetradecan-1-oic acid]
Percent ^241Am content reduction in tissue, GIT [1]: 43.9%
Percent ^241Am content reduction in tissue, Gonads [1]: 51.1%
Percent ^241Am content reduction in tissue, Kidneys [1]: 52.4%
Percent ^241Am content reduction in tissue, Liver [1]: 29.7%
Percent ^241Am content reduction in tissue, Lungs [1]: 30.6%
Percent ^241Am content reduction in tissue, Soft Tissue [1]: 47.1%
Percent ^241Am content reduction in tissue, Spleen [1]: 47.7%
Percent ^241Am content reduction in tissue, TBLN [1]: 22.9%
Percent ^241Am content reduction in tissue, Total Bone [1]: 41.6%
Average percent recovered activity, Feces [2]: 31.78 (3.21) %
Average percent recovered activity, Urine [2]: 22.35 (0.56)** %
Average percent recovered activity, GIT (C2E2 100 mg/kg, dogs): 0.53 (0.05)** %
Average percent recovered activity, Kidney (C2E2 100 mg/kg, dogs): 0.37 (0.03)** %
Average percent recovered activity, Liver (C2E2 100 mg/kg, dogs): 19.13 (1.34)** %
Average percent recovered activity, Lung (C2E2 100 mg/kg, dogs): 9.69 (1.77)* %
Average percent recovered activity, Ovaries (C2E2 100 mg/kg, dogs): 0.001 (0.000) %
Average percent recovered activity, Soft Tissue (C2E2 100 mg/kg, dogs): 1.08 (0.07)** %
Average percent recovered activity, Spleen (C2E2 100 mg/kg, dogs): 0.16 (0.03) %
Average percent recovered activity, TBLN (C2E2 100 mg/kg, dogs): 0.028 (0.002) %
Average percent recovered activity, Testes (C2E2 100 mg/kg, dogs): 0.003 (0.001)* %
Average percent recovered activity, Total Bone (C2E2 100 mg/kg, dogs): 14.90 (1.97)** %
Percent ^241Am content reduction in tissue, GIT [3]: 58.2%
Percent ^241Am content reduction in tissue, Gonads [3]: 66.3%
Percent ^241Am content reduction in tissue, Kidneys [3]: 63.0%
Percent ^241Am content reduction in tissue, Liver [3]: 51.0%
Percent ^241Am content reduction in tissue, Lungs [3]: 48.2%
Percent ^241Am content reduction in tissue, Soft Tissue [3]: 51.8%
Percent ^241Am content reduction in tissue, Spleen [3]: 74.8%
Percent ^241Am content reduction in tissue, TBLN [3]: 31.7%
Percent ^241Am content reduction in tissue, Total Bone [3]: 45.5%
Percent change in excretion, Feces [3]: 155%
Average percent recovered activity, Feces [4]: 41.85 (4.43)** %
Average percent recovered activity, Urine [4]: 21.93 (2.26)** %
Average percent recovered activity, GIT (C2E2 300 mg/kg, dogs): 0.39 (0.06)** %
Average percent recovered activity, Kidney (C2E2 300 mg/kg, dogs): 0.28 (0.04)** %
Average percent recovered activity, Liver (C2E2 300 mg/kg, dogs): 13.35 (1.51)** %
Average percent recovered activity, Lung (C2E2 300 mg/kg, dogs): 7.23 (0.89)** %
Average percent recovered activity, Ovaries (C2E2 300 mg/kg, dogs): 0.001 (0.001)* %
Average percent recovered activity, Soft Tissue (C2E2 300 mg/kg, dogs): 0.99 (0.12)** %
Average percent recovered activity, Spleen (C2E2 300 mg/kg, dogs): 0.07 (0.02)** %
Average percent recovered activity, TBLN (C2E2 300 mg/kg, dogs): 0.024 (0.004) %
Average percent recovered activity, Testes (C2E2 300 mg/kg, dogs): 0.003 (0.001)* %
Average percent recovered activity, Total Bone (C2E2 300 mg/kg, dogs): 13.93 (1.30)** %
Percent ^241Am content reduction in tissue, GIT [5]: 54.1%
Percent ^241Am content reduction in tissue, Gonads [5]: 55.3%
Percent ^241Am content reduction in tissue, Kidneys [5]: 61.8%
Percent ^241Am content reduction in tissue, Liver [5]: 71.7%
Percent ^241Am content reduction in tissue, Lungs [5]: 63.5%
Percent ^241Am content reduction in tissue, Soft Tissue [5]: 50.7%
Percent ^241Am content reduction in tissue, Spleen [5]: 69.0%
Percent ^241Am content reduction in tissue, TBLN [5]: 35.0%
Percent ^241Am content reduction in tissue, Total Bone [5]: 48.3%
Percent change in excretion, Urine [5]: 1310%
Average percent recovered activity, Feces [6]: 36.53 (1.18)* %
Average percent recovered activity, Urine [6]: 35.63 (0.70)** %
Average percent recovered activity, GIT (C2E2 500 mg/kg, dogs): 0.44 (0.05)** %
Average percent recovered activity, Kidney (C2E2 500 mg/kg, dogs): 0.29 (0.01)** %
Average percent recovered activity, Liver (C2E2 500 mg/kg, dogs): 7.71 (0.35)** %
Average percent recovered activity, Lung (C2E2 500 mg/kg, dogs): 5.10 (0.31)** %
Average percent recovered activity, Ovaries (C2E2 500 mg/kg, dogs): 0.001 (0.000) %
Average percent recovered activity, Soft Tissue (C2E2 500 mg/kg, dogs): 1.01 (0.02)** %
Average percent recovered activity, Spleen (C2E2 500 mg/kg, dogs): 0.09 (0.02)* %
Average percent recovered activity, TBLN (C2E2 500 mg/kg, dogs): 0.023 (0.003) %
Average percent recovered activity, Testes (C2E2 500 mg/kg, dogs): 0.003 (0.001)* %
Average percent recovered activity, Total Bone (C2E2 500 mg/kg, dogs): 13.20 (0.86)** %
In-life observations (dogs, single oral 100, 300, 500 mg/kg, one 500 mg/kg animal (4004) had foamy emesis): no unusual or adverse effects
Reduction of ^241Am content, TBLN [7]: About 50%
Reduction of ^241Am content, total bone content [7]: ~40%
